Values quoted from earlier work in patent US20070281009A1, “N-Acetylglucosamine Tablet Disintegrating In Oral Cavity And Process For Producing The Same” (Yaizu Suisankagaku Industry Co., Ltd., priority 2004, published 2007).

Experiments:
arthropathy = conditions: human, 500 mg/day or 1,000 mg/day dissolved in milk
skin beauty = conditions: human, oral, 1,000 mg/day
[1] = tested on: synthesis of hyaluronic acid

SMILES	Effect of ameliorating arthropathy (arthropathy)	Effect on enhancing skin beauty (skin beauty)	Ability to promote synthesis of hyaluronic acid [1]
CC(=O)N[C@H]1C(O)O[C@H](CO)[C@@H](O)[C@@H]1O (stereo partly drawn) [N-acetylglucosamine]	confirmed to provide an effect of ameliorating arthropathy	effective	
CC1=C(/C=C/C(C)=C/C=C/C(C)=C/C=C/C=C(C)/C=C/C=C(C)/C=C/C2=C(C)CCCC2(C)C)C(C)(C)CCC1 [β-carotene]			known to have an ability to promote synthesis of hyaluronic acid
